The subject of this experiment is BDF1 mice, s.c. Lewis lung carcinoma, T/C %. Put plainly: NCI In Vivo Anticancer Drug Screen. Data for tumor model Lewis Lung Carcinoma (subcutaneous) in B6D2F1 (BDF1) mice. How it is done: The antitumor activity of compounds was measured in mice bearing transplantable tumors. Survival or tumor size were measured and the results are expressed as the measurement made in the treated group (T) divided by the measurement made in the vehicle treated control group (C). The tumor model used in this assay is Lewis Lung Carcinoma (subcutaneous) in B6D2F1 (BDF1) mice

[1] abbreviates: endpoint: mean tumor weight, dose: 50.0 mg/kg/injection, schedule: Q01DX011 (ip), vehicle: saline, higher = larger tumour.
[2] abbreviates: endpoint: mean tumor weight, dose: 50.0 mg/kg/injection, schedule: Q01DX011 (sc), vehicle: steriod suspending solution, higher = larger tumour.
[3] abbreviates: endpoint: mean tumor weight, dose: 100.0 mg/kg/injection, schedule: Q01DX011 (sc), vehicle: steriod suspending solution, higher = larger tumour.
[4] abbreviates: endpoint: mean tumor weight, dose: 200.0 mg/kg/injection, schedule: Q01DX011 (ip), vehicle: other, higher = larger tumour.
Setting [5] is: endpoint: mean tumor weight, dose: 12.5 mg/kg/injection, schedule: Q01DX011 (ip), vehicle: saline, higher = larger tumour.
[6] abbreviates: endpoint: mean tumor weight, dose: 25.0 mg/kg/injection, schedule: Q01DX011 (ip), vehicle: saline, higher = larger tumour.

“And” between values parts separate entries of the source, which are not always exact repeats. Identical values can stand only once. Results filed as inconclusive are left out.

Take `COc1cc(OC)c(-c2cc(=O)c3c(OC)c(OC)c(OC)c(OC)c3o2)cc1OC`: the T/C was 73 % of control under setting [1]; 70 % of control (endpoint: mean tumor weight, dose: 100.0 mg/kg/injection, schedule: Q01DX011 (ip), vehicle: saline, higher = larger tumour); 97 % of control (endpoint: mean tumor weight, dose: 200.0 mg/kg/injection, schedule: Q01DX011 (ip), vehicle: saline, higher = larger tumour); 51 % of control (endpoint: mean tumor weight, dose: 400.0 mg/kg/injection, schedule: Q01DX011 (ip), vehicle: saline, higher = larger tumour).

`CC/C(=C(/CC)c1ccc(O)cc1)c1ccc(O)cc1`: the T/C by setting is: (endpoint: mean tumor weight, dose: 12.5 mg/kg/injection, schedule: Q01DX011 (sc), vehicle: steriod suspending solution, higher = larger tumour) 38 % of control; (endpoint: mean tumor weight, dose: 25.0 mg/kg/injection, schedule: Q01DX011 (sc), vehicle: steriod suspending solution, higher = larger tumour) 28 % of control; under setting [2], 17 % of control; under setting [3], 21 % of control; (endpoint: median survival time, dose: 25.0 mg/kg/injection, schedule: Q01DX009 (ip), vehicle: Klucel (hydroxypropylcellulose) (HPC), higher = longer survival) 120 % of control; (endpoint: median survival time, dose: 50.0 mg/kg/injection, schedule: Q01DX009 (ip), vehicle: Klucel (hydroxypropylcellulose) (HPC), higher = longer survival) 106 % of control. The T/C was 113 % of control (endpoint: median survival time, dose: 100.0 mg/kg/injection, schedule: Q01DX009 (ip), vehicle: Klucel (hydroxypropylcellulose) (HPC), higher = longer survival) and 124 % of control (endpoint: median survival time, dose: 200.0 mg/kg/injection, schedule: Q01DX009 (ip), vehicle: Klucel (hydroxypropylcellulose) (HPC), higher = longer survival).

`Fc1ccc(CSc2ncnc3c2ncn3C2CCCCO2)cc1` (stereo not given): the T/C reads like this: under setting [4], 73 % of control; (endpoint: mean tumor weight, dose: 400.0 mg/kg/injection, schedule: Q01DX011 (ip), vehicle: other, higher = larger tumour) 33 % of control.

Turning to `COc1cc(NS(C)(=O)=O)ccc1Nc1c2ccccc2nc2ccccc12`, the T/C is, setting by setting: (endpoint: median survival time, dose: 0.13 mg/kg/injection, schedule: Q01DX009 (ip), vehicle: other, higher = longer survival) 117 % of control; (endpoint: median survival time, dose: 0.5 mg/kg/injection, schedule: Q01DX009 (ip), vehicle: other, higher = longer survival) 118 % of control; (endpoint: median survival time, dose: 0.78 mg/kg/injection, schedule: Q01DX009 (ip), vehicle: saline, higher = longer survival) 96 % of control; (endpoint: median survival time, dose: 1.25 mg/kg/injection, schedule: Q01DX011 (ip), vehicle: Klucel (hydroxypropylcellulose) (HPC), higher = longer survival) 91 % of control; (endpoint: median survival time, dose: 1.56 mg/kg/injection, schedule: Q01DX009 (ip), vehicle: saline, higher = longer survival) 100 % of control; (endpoint: median survival time, dose: 2.5 mg/kg/injection, schedule: Q01DX011 (ip), vehicle: Klucel (hydroxypropylcellulose) (HPC), higher = longer survival) 96 % of control. Besides, the T/C was 118 % of control (endpoint: median survival time, dose: 3.12 mg/kg/injection, schedule: Q01DX009 (ip), vehicle: Klucel (hydroxypropylcellulose) (HPC), higher = longer survival); 103 % of control and 107 % of control (endpoint: median survival time, dose: 3.13 mg/kg/injection, schedule: Q01DX009 (ip), vehicle: saline, higher = longer survival); 115 % of control (endpoint: median survival time, dose: 6.25 mg/kg/injection, schedule: Q01DX009 (ip), vehicle: Klucel (hydroxypropylcellulose) (HPC), higher = longer survival); 214 % of control (endpoint: median survival time, dose: 12.5 mg/kg/injection, schedule: Q01DX009 (ip), vehicle: Klucel (hydroxypropylcellulose) (HPC), higher = longer survival); 88 % of control (endpoint: median tumor weight (est.), dose: 1.25 mg/kg/injection, schedule: Q01DX011 (ip), vehicle: Klucel (hydroxypropylcellulose) (HPC), higher = larger tumour); 110 % of control (endpoint: median tumor weight (est.), dose: 2.5 mg/kg/injection, schedule: Q01DX011 (ip), vehicle: Klucel (hydroxypropylcellulose) (HPC), higher = larger tumour). The T/C (endpoint: median tumor weight (est.), dose: 5.0 mg/kg/injection, schedule: Q01DX011 (ip), vehicle: Klucel (hydroxypropylcellulose) (HPC), higher = larger tumour) is 504 % of control.

In the case of `N#CCCN(Cc1ccccc1)C(N)=O`, the T/C reads like this: (endpoint: mean tumor weight, dose: 0.5 mg/kg/injection, schedule: Q01DX011 (ip), vehicle: other, higher = larger tumour) 73 % of control; (endpoint: mean tumor weight, dose: 1.0 mg/kg/injection, schedule: Q01DX011 (ip), vehicle: other, higher = larger tumour) 68 % of control; (endpoint: mean tumor weight, dose: 2.0 mg/kg/injection, schedule: Q01DX011 (ip), vehicle: other, higher = larger tumour) 48 % of control; (endpoint: mean tumor weight, dose: 4.0 mg/kg/injection, schedule: Q01DX011 (ip), vehicle: other, higher = larger tumour) 55 % of control.

Turning to `CCCCOP(=O)(OCCCC)c1ccccc1`, the T/C reads like this: (endpoint: mean tumor weight, dose: 104.0 mg/kg/injection, schedule: Q01DX011 (ip), vehicle: other, higher = larger tumour) 93 % of control; (endpoint: mean tumor weight, dose: 233.0 mg/kg/injection, schedule: Q01DX011 (ip), vehicle: other, higher = larger tumour) 66 % of control.

Take `Cc1cccc(C)c1[N+](=O)[O-]`: the T/C is 88 % of control (endpoint: mean tumor weight, dose: 133.0 mg/kg/injection, schedule: Q01DX011 (ip), vehicle: other, higher = larger tumour); 66 % of control under setting [4]; 67 % of control (endpoint: mean tumor weight, dose: 300.0 mg/kg/injection, schedule: Q01DX011 (ip), vehicle: other, higher = larger tumour).

In the case of `CCCCN(C)N=Nc1ccc(CCC(=O)OCC)cc1`, the T/C runs as follows: (endpoint: median tumor weight (est.), dose: 72.0 mg/kg/injection, schedule: Q01DX009 (ip), vehicle: saline with Tween-80, higher = larger tumour) 107 % of control; (endpoint: median tumor weight (est.), dose: 145.0 mg/kg/injection, schedule: Q01DX009 (ip), vehicle: saline with Tween-80, higher = larger tumour) 95 % of control; (endpoint: median tumor weight (est.), dose: 290.0 mg/kg/injection, schedule: Q01DX009 (ip), vehicle: saline with Tween-80, higher = larger tumour) 61 % of control.

For the compound `CN(/N=N/N(C)c1ccccc1)c1ccccc1`, the T/C is 77 % of control (endpoint: mean tumor weight, dose: 15.6 mg/kg/injection, schedule: Q01DX011 (ip), vehicle: carboxymethylcellulose (CMC), higher = larger tumour); 66 % of control (endpoint: mean tumor weight, dose: 31.3 mg/kg/injection, schedule: Q01DX011 (ip), vehicle: carboxymethylcellulose (CMC), higher = larger tumour); 52 % of control (endpoint: mean tumor weight, dose: 62.5 mg/kg/injection, schedule: Q01DX011 (ip), vehicle: carboxymethylcellulose (CMC), higher = larger tumour); 48 % of control (endpoint: mean tumor weight, dose: 125.0 mg/kg/injection, schedule: Q01DX011 (ip), vehicle: carboxymethylcellulose (CMC), higher = larger tumour).

`COc1ccc(-c2cc(=O)c3c(O)c(OC)c(OC)c(OC)c3o2)cc1`: the T/C is, setting by setting: under setting [5], 95 % of control; under setting [6], 100 % of control; under setting [2], 63 % of control; under setting [3], 90 % of control.

With `Clc1cccc(Br)c1`, the T/C by setting is: (endpoint: mean tumor weight, dose: 25.0 mg/kg/injection, schedule: Q01DX011 (ip), vehicle: other, higher = larger tumour) 95 % of control; (endpoint: mean tumor weight, dose: 50.0 mg/kg/injection, schedule: Q01DX011 (ip), vehicle: other, higher = larger tumour) 81 % of control; (endpoint: mean tumor weight, dose: 100.0 mg/kg/injection, schedule: Q01DX011 (ip), vehicle: other, higher = larger tumour) 58 % of control; under setting [4], 30 % of control.

In the case of `Oc1ccc(O)c(/C=N/NC(=S)NC2CC3CC2C2C=CCC32)c1` (stereo not given), the T/C is 87 % of control (endpoint: median survival time, dose: 25.0 mg/kg/injection, schedule: Q01DX009 (ip), vehicle: olive oil, sesame oil, peanut oil, higher = longer survival) and 86 % of control (endpoint: median survival time, dose: 50.0 mg/kg/injection, schedule: Q01DX009 (ip), vehicle: olive oil, sesame oil, peanut oil, higher = longer survival).

In the case of `ClCCn1cnc2c(SCc3ccccc3Cl)ncnc21`, the T/C by setting is: (endpoint: mean tumor weight, dose: 60.0 mg/kg/injection, schedule: Q01DX011 (ip), vehicle: other, higher = larger tumour) 75 % of control; (endpoint: mean tumor weight, dose: 120.0 mg/kg/injection, schedule: Q01DX011 (ip), vehicle: other, higher = larger tumour) 58 % of control; (endpoint: mean tumor weight, dose: 240.0 mg/kg/injection, schedule: Q01DX011 (ip), vehicle: other, higher = larger tumour) 64 % of control.

For `CC(C)=CCC/C(C)=C\CC/C(C)=C/CO`, the T/C (endpoint: mean tumor weight, dose: 6.25 mg/kg/injection, schedule: Q01DX011 (ip), vehicle: saline, higher = larger tumour) is 85 % of control; the T/C under setting [5] was 50 % of control; the T/C under setting [6] is 67 % of control; the T/C under setting [1] was 95 % of control.

Take `O=NN(CCCl)C(=O)NC1CC2CCC1C2` (stereo not given): the T/C was 102 % of control and 108 % of control (endpoint: median survival time, dose: 10.0 mg/kg/injection, schedule: Q01DX001 (ip), vehicle: Klucel (hydroxypropylcellulose) (HPC), higher = longer survival); 99 % of control and 102 % of control (endpoint: median survival time, dose: 20.0 mg/kg/injection, schedule: Q01DX001 (ip), vehicle: Klucel (hydroxypropylcellulose) (HPC), higher = longer survival); 106 % of control (endpoint: median survival time, dose: 40.0 mg/kg/injection, schedule: Q01DX001 (ip), vehicle: Klucel (hydroxypropylcellulose) (HPC), higher = longer survival); 260 % of control (endpoint: median survival time, dose: 80.0 mg/kg/injection, schedule: Q01DX001 (ip), vehicle: Klucel (hydroxypropylcellulose) (HPC), higher = longer survival); 117 % of control (endpoint: median survival time, dose: 160.0 mg/kg/injection, schedule: Q01DX001 (ip), vehicle: Klucel (hydroxypropylcellulose) (HPC), higher = longer survival).

Regarding `CCCCCCCCCCCC(c1ccccc1)[N+](C)(C)C` (stereo not given), the T/C is 102 % of control (endpoint: median survival time, dose: 0.5 mg/kg/injection, schedule: Q01DX009 (ip), vehicle: saline, higher = longer survival); 96 % of control (endpoint: median survival time, dose: 1.0 mg/kg/injection, schedule: Q01DX009 (ip), vehicle: saline, higher = longer survival); 93 % of control (endpoint: median survival time, dose: 2.0 mg/kg/injection, schedule: Q01DX009 (ip), vehicle: saline, higher = longer survival).

As to `CS(=O)(=O)OCCCCCCCCCOS(C)(=O)=O`, the T/C was 104 % of control and 105 % of control (endpoint: mean tumor weight, dose: 12.5 mg/kg/injection, schedule: Q01DX011 (ip), vehicle: carboxymethylcellulose (CMC), higher = larger tumour); 68 % of control and 84 % of control (endpoint: mean tumor weight, dose: 25.0 mg/kg/injection, schedule: Q01DX011 (ip), vehicle: carboxymethylcellulose (CMC), higher = larger tumour).

The record behind these values is PubChem BioAssay AID270 (DTP/NCI, 2004).
